In the OligoGym collection:
HELM strings list units from the 5' end as sugar, base in round brackets, then linkage (d deoxyribose, r ribose, m 2'-O-methyl, p phosphodiester). Strings are as the collection lists them; they lack the last nucleoside at the 3' end of the tested compound. [moe] = 2'-O-(2-methoxyethyl) (MOE); [sp] = phosphorothioate linkage; [m5C] = 5-methylcytosine

Target: UBE3A-ATS
Assay: mouse, dose not given
Settings: ASO

Row | Substance | 3 h FOB score [score 0-7]
1 | RNA1{[moe](A)[sp].[moe](A)p.[moe]([m5C])p.[moe](T)p.[moe](T)p.d([m5C])[sp].d(A)[sp].d(T)[sp].d([m5C])[sp].d(A)[sp].d(A)[sp].d(T)[sp].d(A)[sp].d(T)[sp].d(T)[sp].[moe](T)p.[moe]([m5C])p.[moe]([m5C])[sp].[moe]([m5C])}$$$$ (last 3' nucleoside missing) | 1
2 | RNA1{[moe](T)[sp].[moe](G)p.[moe](T)p.[moe](G)p.[moe](T)p.d(T)[sp].d(T)[sp].d(T)[sp].d(T)[sp].d([m5C])[sp].d([m5C])[sp].d(A)[sp].d(T)[sp].d(T)[sp].d(T)[sp].[moe](T)p.[moe](T)p.[moe]([m5C])[sp].[moe](T)}$$$$ (last 3' nucleoside missing) | 0
3 | RNA1{[moe](G)[sp].[moe](T)p.[moe]([m5C])p.[moe](A)p.[moe](T)[sp].d([m5C])[sp].d(T)[sp].d([m5C])[sp].d(G)[sp].d(G)[sp].d(G)[sp].d(T)[sp].d(A)[sp].[moe](T)p.[moe](A)p.[moe](T)[sp].[moe](A)}$$$$ (last 3' nucleoside missing) | 4.3
4 | RNA1{[moe](T)[sp].[moe](T)p.[moe](G)p.[moe](G)p.[moe](T)[sp].d([m5C])[sp].d(A)[sp].d(T)[sp].d([m5C])[sp].d(T)[sp].d([m5C])[sp].d(G)[sp].d(G)[sp].[moe](G)p.[moe](T)p.[moe](A)[sp].[moe](T)}$$$$ (last 3' nucleoside missing) | 5
5 | RNA1{[moe](T)[sp].[moe](G)p.[moe](T)p.[moe](G)p.[moe](T)p.[moe](T)p.d(T)[sp].d(T)[sp].d(T)[sp].d([m5C])[sp].d([m5C])[sp].d(A)[sp].d(T)[sp].d(T)[sp].d(T)[sp].d(T)[sp].[moe](T)p.[moe]([m5C])[sp].[moe](T)}$$$$ (last 3' nucleoside missing) | 0
6 | RNA1{[moe](G)[sp].[moe](T)p.[moe]([m5C])p.[moe](A)[sp].d(T)[sp].d([m5C])[sp].d(T)[sp].d([m5C])[sp].d(G)[sp].d(G)[sp].d(G)[sp].d(T)[sp].[moe](A)p.[moe](T)p.[moe](A)p.[moe](T)[sp].[moe](A)}$$$$ (last 3' nucleoside missing) | 4.3
7 | RNA1{[moe](T)[sp].[moe]([m5C])p.[moe](T)p.[moe](G)p.[moe]([m5C])p.d(T)[sp].d(A)[sp].d(T)[sp].d(T)[sp].d(G)[sp].d(T)[sp].d(T)[sp].d(G)[sp].d(G)[sp].d(A)[sp].[moe](T)p.[moe](A)p.[moe](T)[sp].[moe]([m5C])}$$$$ (last 3' nucleoside missing) | 6.5
8 | RNA1{[moe](A)[sp].[moe](G)p.[moe]([m5C])p.[moe](T)p.[moe](A)p.d(T)[sp].d([m5C])[sp].d(T)[sp].d(G)[sp].d(T)[sp].d(A)[sp].d([m5C])[sp].d(A)[sp].d(A)[sp].d(A)[sp].[moe](A)p.[moe](T)p.[moe](G)[sp].[moe](G)}$$$$ (last 3' nucleoside missing) | 4
9 | RNA1{[moe](G)[sp].[moe](G)p.[moe](A)p.[moe]([m5C])p.[moe](T)p.d(T)[sp].d(G)[sp].d(T)[sp].d([m5C])[sp].d(T)[sp].d(T)[sp].d(A)[sp].d(T)[sp].d(G)[sp].d(G)[sp].[moe]([m5C])p.[moe](T)p.[moe](G)[sp].[moe]([m5C])}$$$$ (last 3' nucleoside missing) | 1
10 | RNA1{[moe](G)[sp].[moe]([m5C])p.[moe](T)p.[moe](A)p.[moe](T)p.d(A)[sp].d(G)[sp].d(G)[sp].d(T)[sp].d(G)[sp].d(T)[sp].d([m5C])[sp].d(A)[sp].d([m5C])[sp].d(A)[sp].[moe](T)p.[moe](A)p.[moe](T)[sp].[moe](T)}$$$$ (last 3' nucleoside missing) | 2
11 | RNA1{[moe](G)[sp].[moe]([m5C])p.[moe](T)p.[moe](A)p.[moe](T)p.d([m5C])[sp].d(T)[sp].d(G)[sp].d(T)[sp].d(A)[sp].d([m5C])[sp].d(A)[sp].d(A)[sp].d(A)[sp].d(A)[sp].[moe](T)p.[moe](G)p.[moe](G)[sp].[moe](A)}$$$$ (last 3' nucleoside missing) | 0
12 | RNA1{[moe](T)[sp].[moe]([m5C])p.[moe](T)p.[moe](G)p.[moe]([m5C])p.d(T)[sp].d([m5C])[sp].d(A)[sp].d(G)[sp].d(T)[sp].d(T)[sp].d(A)[sp].d(G)[sp].d(G)[sp].d(T)[sp].[moe](T)p.[moe](A)p.[moe](G)[sp].[moe](T)}$$$$ (last 3' nucleoside missing) | 7
13 | RNA1{[moe](T)[sp].[moe]([m5C])p.[moe](A)p.[moe]([m5C])p.[moe](T)p.d(G)[sp].d(A)[sp].d(G)[sp].d(T)[sp].d(T)[sp].d(T)[sp].d(T)[sp].d(T)[sp].d(G)[sp].d(T)[sp].[moe](A)p.[moe](G)p.[moe](T)[sp].[moe](T)}$$$$ (last 3' nucleoside missing) | 3.7
14 | RNA1{[moe](G)[sp].[moe](T)p.[moe](G)p.[moe](T)p.[moe](G)p.d(G)[sp].d(A)[sp].d(T)[sp].d(G)[sp].d(G)[sp].d(T)[sp].d(A)[sp].d(T)[sp].d([m5C])[sp].d([m5C])[sp].[moe](T)p.[moe](G)p.[moe](G)[sp].[moe](T)}$$$$ (last 3' nucleoside missing) | 5.5
15 | RNA1{[moe]([m5C])[sp].[moe]([m5C])p.[moe]([m5C])p.[moe](A)p.[moe](T)p.d(T)[sp].d(A)[sp].d(G)[sp].d(A)[sp].d([m5C])[sp].d([m5C])[sp].d([m5C])[sp].d(A)[sp].d(T)[sp].d(G)[sp].[moe](G)p.[moe]([m5C])p.[moe](T)[sp].[moe]([m5C])}$$$$ (last 3' nucleoside missing) | 7
16 | RNA1{[moe](A)[sp].[moe](T)p.[moe](T)p.[moe]([m5C])p.[moe](A)p.d(G)[sp].d([m5C])[sp].d(A)[sp].d([m5C])[sp].d(T)[sp].d(T)[sp].d(A)[sp].d(G)[sp].d(G)[sp].d(T)[sp].[moe](A)p.[moe](G)p.[moe](T)[sp].[moe](T)}$$$$ (last 3' nucleoside missing) | 3.3
17 | RNA1{[moe](A)[sp].[moe]([m5C])p.[moe](T)p.[moe]([m5C])p.[moe](A)p.d(T)[sp].d([m5C])[sp].d(A)[sp].d(T)[sp].d(G)[sp].d(A)[sp].d(T)[sp].d([m5C])[sp].d(T)[sp].d(T)[sp].[moe](G)p.[moe](G)p.[moe](T)[sp].[moe](A)}$$$$ (last 3' nucleoside missing) | 3
18 | RNA1{[moe]([m5C])[sp].[moe](G)p.[moe]([m5C])p.[moe](A)[sp].d(A)[sp].d(T)[sp].d(G)[sp].d(T)[sp].d(A)[sp].d(T)[sp].d([m5C])[sp].d(A)[sp].[moe](G)p.[moe](G)p.[moe]([m5C])p.[moe](A)[sp].[moe](A)}$$$$ (last 3' nucleoside missing) | 1
19 | RNA1{[moe](G)[sp].[moe](T)p.[moe](G)p.[moe](G)p.[moe](T)p.d(T)[sp].d(G)[sp].d([m5C])[sp].d([m5C])[sp].d(T)[sp].d(T)[sp].d(A)[sp].d(G)[sp].d(T)[sp].d(A)[sp].[moe](T)p.[moe](T)p.[moe](A)[sp].[moe]([m5C])}$$$$ (last 3' nucleoside missing) | 2.2
20 | RNA1{[moe]([m5C])[sp].[moe](A)p.[moe](G)p.[moe](G)p.[moe](T)p.d(G)[sp].d(T)[sp].d([m5C])[sp].d(T)[sp].d(T)[sp].d(A)[sp].d(T)[sp].d(A)[sp].d(T)[sp].d([m5C])[sp].[moe](T)p.[moe](A)p.[moe](T)[sp].[moe](G)}$$$$ (last 3' nucleoside missing) | 0
21 | RNA1{[moe](G)[sp].[moe](A)p.[moe](T)p.[moe]([m5C])p.[moe](A)p.[moe]([m5C])[sp].d(A)[sp].d(T)[sp].d(T)[sp].d(A)[sp].d([m5C])[sp].d([m5C])[sp].d([m5C])[sp].d(A)[sp].[moe](T)p.[moe]([m5C])[sp].[moe]([m5C])}$$$$ (last 3' nucleoside missing) | 0
22 | RNA1{[moe](T)[sp].[moe](G)p.[moe](A)p.[moe](T)p.[moe]([m5C])p.[moe](A)[sp].d([m5C])[sp].d(A)[sp].d(T)[sp].d(T)[sp].d(A)[sp].d([m5C])[sp].d([m5C])[sp].d([m5C])[sp].[moe](A)p.[moe](T)[sp].[moe]([m5C])}$$$$ (last 3' nucleoside missing) | 0
23 | RNA1{[moe](T)[sp].[moe](T)p.[moe](G)p.[moe](G)p.[moe](T)p.d(A)[sp].d(T)[sp].d(T)[sp].d(G)[sp].d(A)[sp].d([m5C])[sp].d(A)[sp].d([m5C])[sp].d([m5C])[sp].d(T)[sp].[moe]([m5C])p.[moe]([m5C])p.[moe](A)[sp].[moe](A)}$$$$ (last 3' nucleoside missing) | 1
24 | RNA1{[moe](G)[sp].[moe](A)p.[moe](T)p.[moe](A)p.[moe](G)p.d(G)[sp].d(G)[sp].d(T)[sp].d(T)[sp].d(T)[sp].d(A)[sp].d(G)[sp].d(G)[sp].d(T)[sp].d([m5C])[sp].[moe](A)p.[moe](A)p.[moe]([m5C])[sp].[moe]([m5C])}$$$$ (last 3' nucleoside missing) | 5
25 | RNA1{[moe]([m5C])[sp].[moe]([m5C])p.[moe](T)p.[moe](T)p.[moe](T)p.d([m5C])[sp].d(T)[sp].d(A)[sp].d(T)[sp].d(T)[sp].d(T)[sp].d([m5C])[sp].d(A)[sp].d(G)[sp].d(A)[sp].[moe]([m5C])p.[moe]([m5C])p.[moe](G)[sp].[moe](A)}$$$$ (last 3' nucleoside missing) | 2.3
26 | RNA1{[moe](T)[sp].[moe](G)p.[moe](A)p.[moe](T)p.[moe]([m5C])p.d(T)[sp].d(A)[sp].d(T)[sp].d(T)[sp].d(A)[sp].d(T)[sp].d(G)[sp].d(A)[sp].d(G)[sp].d(G)[sp].[moe](G)p.[moe]([m5C])p.[moe](A)[sp].[moe](T)}$$$$ (last 3' nucleoside missing) | 2
27 | RNA1{[moe](A)[sp].[moe](A)p.[moe](A)p.[moe](A)p.[moe]([m5C])p.d(G)[sp].d([m5C])[sp].d(A)[sp].d(A)[sp].d(T)[sp].d(G)[sp].d(T)[sp].d(A)[sp].d(T)[sp].d([m5C])[sp].[moe](A)p.[moe](G)p.[moe](G)[sp].[moe]([m5C])}$$$$ (last 3' nucleoside missing) | 0.7
